Data published in patent US20090099207A1, “Cyclic sulfones useful as BACE inhibitors” (priority 2006, published 2009).

Tests used:
[1] = Test 4: Inhibition of cellular release of amyloid peptide 1-40; type: cell-based, Chinese hamster; settings: Cricetulus griseus; CHO cells transfected with APP gene; 24 hours with test compound; amyloid peptide 1-40 in supernatant by sandwich ELISA
Description: Test 4: Inhibition of Cellular Release of Amyloid Peptide 1-40

Row | Compound | melting point | IC50 [1]
1 | COc1ccc(C[C@@H]2CS(=O)(=O)C[C@H](NCc3cccc(C(C)C)c3)[C@H]2O)cc1Br.Cl | 173 to 175 °C | 
2 | CC(C)c1cccc(CN[C@H]2CS(=O)(=O)C[C@@H](Cc3ccccc3)[C@@H]2O)c1.Cl (hydrate or solvate) | 239 to 242 °C | 
3 | CO[C@@H](C)COCc1cccc(C[C@@H]2CS(=O)(=O)C[C@H](NCc3cccc(C(C)C)c3)[C@H]2O)c1 [Example 26, (3R,4S,5S)-3-(3-Isopropyl-benzylamino)-5-[3-((S)-2-methoxy-propoxy-methyl)-benzyl]-1,1-dioxo-hexahydro-1lambda*6*-thiopyran-4-ol] |  | 4.7 µM
4 | CC(C)c1cccc(CN[C@H]2CS(=O)(=O)C[C@@H](Cc3ccc(Nc4ccncn4)cc3)[C@@H]2O)c1 [Example 44, (3R,4S,5S)-3-(3-Isopropyl-benzylamino)-1,1-dioxo-5-[4-(pyrimidin-4-ylamino)-benzyl]-hexahydro-1lambda*6*-thiopyran-4-ol] | 136 to 139 °C | 
